According to patent US9997714B2, “Hole transport material” (MERCK PATENT GMBH, priority 2013, dated 2018):
Like-named read-outs stand apart in the source and are kept apart here.

Columns and labels:
[1] = Qualitative solubility of the HTM in chlorobenzene (spin-coat solution); type: physicochemical; conditions: for solubility: organic solvent or mixture; for solubility compared with reference materials: in words
Experimental: A solution for a spin-coat is prepared in a N2 glove box as follows: at first, 20 mg of a hole transport material is dissolved in 95 μL of chlorobenzene. The hole transport material needs to be dissolved completely. A mother solution of lithium bis(trifluorosulfonyl)imide (LiTFSI) and tert-butylpyridine (TBP) is prepared separately at room temperature and is added to the hole transporter solution to set the molar ratio to [hole transporter]:[LiTFSI]:[TBP]=10:1:10 at room temperature. Thus the final volume of the solution is 100 μL.
The solubility of the HTMs according to examples 1, 2 and 3 are evaluated qualitatively:
1 means: 20 mg of HTM is completely dissolved without heating
2 means: HTM is dissolved after heating to 80° C.
3 means: HTM is dissolved after adding salt and base solution and heating to 80° C.
4 means: HTM is dissolved after adding another 50 μL of chlorobenzene and heat to 80° C. (final folume 150 μl).

[2] = Hole mobility by impedance spectroscopy; type: physicochemical; conditions: for Hole mobility: ITO/PEDOT-PSS/HTM(400 nm)/Au cell, dc field intensity 10^5V/cm, four cells
Experimental: The hole mobility of the inventive compound 2,2′,7,7′-tetrakis-(N,N′-di-4-methoxy-3-methylphenylamine)-9,9′-spirobifluorene is measured and the value is compared with those of the reference materials according to example 2 and example 3.
The structure of the measurement cell is ITO(200 nm)/PEDOT-PSS(150 nm)/HTM(400 nm)/Au(60 nm).
The measurement is carried out using four cells for each HTM by means of impedance spectroscopy. (Ref. 1. H. Martens et al., Phys. Rev. B, 60, R8489 (1999), Ref. 2. S. Ishihara, et al., Proc. of IDW'09, p 1085 (2009)). In the impedance measurement, a direct current (dc) voltage is applied to the test cell in order to inject holes from an anode. The hole mobility is determined under the dc field intensity of 10^5V/cm.

[3] = order of magnitude, background; cited from earlier work
[4] = 20 mg of HTM in 95 μL chlorobenzene completely dissolved without heating, read-out: solubility grade 1

## COc1c(C)cc(N(c2cc(C)c(OC)c(C)c2)c2ccc3c(c2)C2(c4cc(N(c5cc(C)c(OC)c(C)c5)c5cc(C)c(OC)c(C)c5)ccc4-3)c3cc(N(c4cc(C)c(OC)c(C)c4)c4cc(C)c(OC)c(C)c4)ccc3-c3ccc(N(c4cc(C)c(OC)c(C)c4)c4cc(C)c(OC)c(C)c4)cc32)cc1C [Example 3]
[1]; HTM dissolved after adding another 50 μL of chlorobenzene and heat to 80° C., final volume 150 μl
  solubility grade 4: ✓
[1]; chlorobenzene with LiTFSI and tert-butylpyridine solution, HTM dissolved after adding salt and base solution and heating to 80° C., read-out: solubility grade 3
  solubility: < 210 mg/mL
[1]; chlorobenzene, HTM dissolved after heating to 80° C., read-out: solubility grade 2
  solubility: < 210 mg/mL
[1]; [4]
  solubility: < 210 mg/mL
[2]
  Hole mobility: 9.34E−06 cm^2/Vs

## COc1ccc(N(c2ccc(OC)c(C)c2)c2ccc3c(c2)C2(c4cc(N(c5ccc(OC)c(C)c5)c5ccc(OC)c(C)c5)ccc4-3)c3cc(N(c4ccc(OC)c(C)c4)c4ccc(OC)c(C)c4)ccc3-c3ccc(N(c4ccc(OC)c(C)c4)c4ccc(OC)c(C)c4)cc32)cc1C [Example 1, 2,2′,7,7′-tetrakis-(N,N′-di-4-methoxy-3-methylphenylamine)-9,9′-spirobifluorene]
[1]; 20 mg of HTM in 95 μL chlorobenzene completely dissolved without heating
  solubility grade 1: ✓
[1]; listed as compound of formula (I)
  solubility compared with reference materials: better solubility than spiro-OMeTAD
[1]; listed as hole transport material according to the invention
  solubility compared with reference materials: better solubility than the reference materials
[2]
  Hole mobility: 1.29E−04 cm^2/Vs

## COc1ccc(N(c2ccc(OC)c(C)c2)c2ccc3c(c2)C2(c4cc(N(c5ccc(OC)c(C)c5)c5ccc(OC)c(C)c5)ccc4-3)c3cc(N(c4ccc(OC)c(C)c4)c4ccc(OC)c(C)c4)ccc3-c3ccc(N(c4ccc(OC)c(C)c4)c4ccc(OC)c(C)c4)cc32)cc1C
[2]; in words
  hole mobility compared with reference example 3: more than one order of magnitude larger
  hole mobility compared with spiro-OMeTAD: larger than the hole mobility of spiro-OMeTAD

## COc1ccc(N(c2ccc(OC)cc2)c2ccc3c(c2)C2(c4cc(N(c5ccc(OC)cc5)c5ccc(OC)cc5)ccc4-3)c3cc(N(c4ccc(OC)cc4)c4ccc(OC)cc4)ccc3-c3ccc(N(c4ccc(OC)cc4)c4ccc(OC)cc4)cc32)cc1 [Example 2, 2,2′,7,7′-tetrakis-(N,N′-di-4-methoxyphenylamine)-9,9′-spirobifluorene]
[1]; HTM dissolved after heating to 80° C.
  solubility grade 2: ✓
[1]; [4]
  solubility: < 210 mg/mL
[2]
  Hole mobility: 1.08E−04 cm^2/Vs
[3]
  charge carrier mobility: ~10^−4 cm^2/Vs
